Reference: the supplement of paper PMC10307832

How the values were obtained:
Assay in all cases: relative viability (nuclei count vs DMSO), 5 days (fraction); higher = more cells survive
[1] = tested on: BEN
Summary of the method: (§1)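 Relative viability was taken as the ratio of nuclei in treated wells to nuclei in vehicle wells. Lung cancer cell lines in 1536-well plates received compounds by pin tool one day after seeding, either one drug alone or a fixed anchor-drug dose plus five library-drug doses (not always all listed) in √10 steps. Nuclei were counted on 4× images after 5 days of treatment, and values are medians of duplicate plates.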

[2] = tested on: NCI-H1944
Summary of the method: as §1

[3] = tested on: 201T
Summary of the method: as §1

[4] = tested on: NCI-H3122
Summary of the method: as §1

[5] = tested on: HOP-62
Summary of the method: as §1

[6] = tested on: HCC-78
Summary of the method: as §1

[7] = tested on: NCI-H1793
Summary of the method: as §1

[8] = tested on: LOU-NH91
Summary of the method: as §1

[9] = tested on: NCI-H1651
Summary of the method: as §1

[10] = tested on: NCI-H441
Summary of the method: as §1

[11] = tested on: NCI-H1915
Summary of the method: as §1

Compound `CCNC(=O)c1noc(-c2cc(C(C)C)c(O)cc2O)c1-c1ccc(CN2CCOCC2)cc1` [Luminespib] + CC1(C)CCC(c2ccc(Cl)cc2)=C(CN2CCN(c3ccc(C(=O)NS(=O)(=O)c4ccc(N[C@H](CCN5CCOCC5)CSc5ccccc5)c(S(=O)(=O)C(F)(F)F)c4)cc3)CC2)C1 [Navitoclax] (partner 0.5 µM) has a relative viability ([1]; first compound 0.02 µM) of 0.0673, a relative viability ([1]; first compound 0.06325 µM) of 0.0655 and a relative viability ([1]; first compound 0.2 µM) of 0.0846. The relative viability ([2]; first compound 0.002 µM) was 1.06, the relative viability ([2]; first compound 0.006325 µM) was 0.99 and the relative viability ([2]; first compound 0.02 µM) was 0.708. It also gave a relative viability ([2]; first compound 0.06325 µM) of 0.939, a relative viability ([2]; first compound 0.2 µM) of 0.973 and a relative viability ([3]; first compound 0.002 µM) of 1.17. The relative viability ([3]; first compound 0.006325 µM) was 1.18, the relative viability ([3]; first compound 0.02 µM) was 1.13 and the relative viability ([3]; first compound 0.06325 µM) was 1.15. For the same compound, the relative viability ([3]; first compound 0.2 µM) was 1.18, the relative viability ([4]; first compound 0.002 µM) was 1.03 and the relative viability ([4]; first compound 0.006325 µM) was 0.956. It also gave a relative viability ([4]; first compound 0.02 µM) of 1.05, a relative viability ([4]; first compound 0.06325 µM) of 0.919 and a relative viability ([4]; first compound 0.2 µM) of 0.196. The relative viability ([5]; first compound 0.002 µM) was 1, the relative viability ([5]; first compound 0.006325 µM) was 1.07 and the relative viability ([5]; first compound 0.02 µM) was 1.07. It also gave a relative viability ([5]; first compound 0.06325 µM) of 0.909, a relative viability ([5]; first compound 0.2 µM) of 0.103 and a relative viability ([6]; first compound 0.002 µM) of 0.874. For the same compound, the relative viability ([6]; first compound 0.06325 µM) was 1.12, the relative viability ([6]; first compound 0.2 µM) was 0.21 and the relative viability ([7]; first compound 0.002 µM) was 0.517. The relative viability ([7]; first compound 0.006325 µM) was 0.374, the relative viability ([7]; first compound 0.02 µM) was 0.293 and the relative viability ([7]; first compound 0.06325 µM) was 0.137. It also gave a relative viability ([7]; first compound 0.2 µM) of 0.122, a relative viability ([8]; first compound 0.002 µM) of 0.692 and a relative viability ([8]; first compound 0.006325 µM) of 0.707. The relative viability ([8]; first compound 0.02 µM) was 0.49, the relative viability ([8]; first compound 0.06325 µM) was 0.257 and the relative viability ([8]; first compound 0.2 µM) was 0.256. For the same compound, the relative viability ([9]; first compound 0.002 µM) was 0.967, the relative viability ([9]; first compound 0.006325 µM) was 1.1 and the relative viability ([9]; first compound 0.02 µM) was 1.08. The relative viability ([9]; first compound 0.06325 µM) was 0.18, the relative viability ([9]; first compound 0.2 µM) was 0.144 and the relative viability ([10]; first compound 0.002 µM) was 0.714. For the same compound, the relative viability ([10]; first compound 0.006325 µM) was 0.648, the relative viability ([10]; first compound 0.02 µM) was 0.626 and the relative viability ([10]; first compound 0.06325 µM) was 0.121. For the same compound, the relative viability ([10]; first compound 0.2 µM) was 0.161, the relative viability ([11]; first compound 0.002 µM) was 0.8 and the relative viability ([11]; first compound 0.006325 µM) was 0.793. The relative viability ([11]; first compound 0.02 µM) was 0.803, the relative viability ([11]; first compound 0.06325 µM) was 0.808 and the relative viability ([11]; first compound 0.2 µM) was 0.775.
